Holding throughout (format): cell-based
For experiment [1], the system named is strain NF54 of P. falciparum. Description: 3H-hypoxanthine incorporation growth inhibition assay, P. falciparum NF54. As for the experimental part: The biological activity of compounds of formula (I) according to the invention has been tested on the basis of an IC50 evaluation against the strain NF54 of P. falciparum.
For Hypoxanthine assay, parasite cultures were grown in 100 mm petri-dishes in growth media having 5% haematocrit in tri-gas incubator (Cat #3131, Thermo Scientific Forma Series II Water Jacketed CO2 incubator, sold by Thermofisher) having controlled gas mixtures of 4% CO2 and 3% O2 at temperature 37° C.
Parasite growth and morphology was observed daily using thin smears at 100× (oil immersion) magnification following staining with Giemsa stain.
Parasites use hypoxanthine included in the growth media as a precursor in nucleic acid synthesis. Accordingly, by replacing hypoxanthine in the media by a radioactive hypoxanthine, such as ^3H-hypoxanthine as indicated here-under, the rate of DNA replication and growth rate of the parasites can be measured, in particular in the presence of the tested compounds of the invention.
The growth media used for the above-indicated parasites contains 1 L of RPMI-1640 (sold by Invitrogen), […] of Albumax II (sold by Invitrogen), 5 mg of Hypoxanthine (sold by Sigma), 25 mM Hepes (sold by Invitrogen) and 2.5 mg of Gentamycin (sold by Sigma).
The screening media used contains 1 L of RPMI-1640 (sold by Invitrogen), […] of Albumax II (sold by Invitrogen), 25 mM Hepes (sold by Invitrogen) and 2.5 mg of Gentamycin (sold by Sigma).
For this assay, the above described screening media was used, as well as 20 Ci/mmol of a radioactive hypoxanthine (the ligand ^3H-hypoxanthine (20 Ci/mmol, 1 mCi/mL) sold by the American Radiolabeled Chemicals (ARC) from St Louis, Mo.), some Top Seal A (sold by Perkin Elmer), 96 Well Cell Culture plates (CellStar® sold by Greiner Bio-One GmbH), MicroScint® 20 (sold by Perkin Elmer) and GFB plates (sold by Perkin Elmer).
On each 96 well plate, 3 compounds of formula (I) according to the invention as well as one standard compound (positive control) are each tested in 12 wells in duplicate.
Said standard compound is a mixture of Artesunate and Chloroquine, two well-known anti malaria compounds.
The maximum activity value of the parasites is determined as positive control by observing the parasites in the presence of erythrocytes, while the minimum activity value of the parasites is determined in a negative control by observing the erythrocytes in the absence of parasites.
The tested compounds of the invention were assayed at a final concentration of 10 μM.
In order to do so, stock solutions at a concentration of […] of compound to be tested are made available in high recovery vials at a concentration of 10 mM. From this, a 20 μM stock in Screening media is prepared ([…] of 10 mM compound+996 μl of screening media) to keep % DMSO at 0.4.
Starting from 20 μM stock solution, 100 μl is added in the assay plate already containing 100 μl of screening media and 1:2 fold serial 12 point dilutions are made in the plate (10 μM to 4.8 nM) (100 μl of compound is mixed with 100 μl of screening media already present in plates, and so on).
P. falciparum culture diluted to 0.3% p and 1.25% h—synchronous ring stage. The assay was carried out in sterile, in the 96-well plate.
100 μL of P. falciparum culture was added per well and were then incubated at 37° C. for 48 hours. Smears are then made to check for growth of culture control after 48 hours of incubation.
Once ensured that the culture has grown in % p, 50 μL of 3H-Hypoxanthine (0.5 μCi/well) is added in each well, and the assay plate is further incubated for 24 hours.
After 72 hours, the assay plates are harvested on GFB plates. In order to remove nonspecific binding, the plates are washed with 2.5 ml of cooled distilled water and GFB plates were kept for drying at 37° C. over night or 60° C. for 1 hour.
50 μL of Microscint®-20 was added to each well.
The plates are then read in Top Count (45 sec/well).
The assay data were analysed using Graph pad prism ver.5 software. […]

In experiment [2] the test system is P. vivax clinical field isolates. Description: Ex vivo drug susceptibility assay (schizont maturation, flow cytometry) on P. vivax clinical field isolates. The settings on record: for Drug susceptibility difference between species: P. falciparum versus P. vivax clinical field isolates. From the text: The biological activity of compound 1b according to the invention has been tested on the basis of an IC50 evaluation against the strain P. vivax.
Plasmodium isolates were collected from patients attending malaria clinics in Timika (Papua, Indonesia), a region endemic for multidrug-resistant strains of P. vivax and P. falciparum. Patients with symptomatic malaria presenting to an outpatient facility were recruited into the study if singly infected with P. falciparum or P. vivax, with a parasitaemia of between […], and the majority (>60%) of parasites at ring stage of development. Venous blood (5 mL) was collected by venepuncture and after removal of host white blood cells by using Plasmodipur filters (EuroProxima B.V., The Netherlands), packed infected red blood cells (iRBCs) were used for the ex vivo drug susceptibility assay.
Standard anti-malarial drugs chloroquine (CQ), piperaquine (PIP), mefloquine (MFQ), and artesunate (AS) (WWARN QA/QC Reference Material Program), and experimental compound 1b were prepared as 1 mg/mL stock solutions in H2O or dimethyl sulfoxide (DMSO) according to the manufacturers' instructions. Drug plates were pre-dosed by diluting the compounds in 50% Methanol followed by lyophilisation and stored at 4° C.
(§1) Drug susceptibility of P. vivax and P. falciparum isolates was measured using a protocol modified from the WHO microtest (see for instance in Marfurt J. et al., Antimicrob Agents Chemother. 2011 September; 55(9):4461).
(§2) Two hundred μL of a 2% haematocrit Blood Media Mixture (BMM), consisting of RPMI 1640 medium plus 10% AB+ human serum (P. falciparum) or McCoy's 5A medium plus 20% AB+ human serum (P. vivax) was added to each well of pre-dosed drug plates containing 11 serial concentrations (2-fold dilutions) of the anti-malarials (maximum concentration shown in brackets) CQ (2,993 nM), PIP (1,029 nM), MFQ (338 nM), AS (49 nM), and compound 1b (237 nM). A candle jar was used to mature the parasites at 37° C. for 35-56 hours. Incubation was stopped when >40% of ring stage parasites had reached the mature schizont stage in the drug-free control wells as determined by light microscopy.
Parasite growth was quantified by nucleic acid staining and data acquisition using flow cytometry as described in detail elsewhere6. Parasite growth was quantified for each drug concentration and normalised to the control well.
The dose-response data were analysed using nonlinear regression analysis and the half-maximal inhibition of growth (IC50) value derived using an inhibitory sigmoid Emax model (In Vitro Analysis and Reporting Tool; IVART7).
Drug plate quality was assured by running schizont maturation assays with the chloroquine-resistant strain K1 and the chloroquine-sensitive strain FC27.
A general note: A flow cytometer gives signals particle by particle.

The subject of experiment [3] is P. falciparum clinical field isolates. Description: Ex vivo drug susceptibility assay (schizont maturation, flow cytometry) on P. falciparum clinical field isolates. The settings on record: Plasmodium falciparum, isolates from Timika (Papua, Indonesia), 35-56 hours. As for the experimental part:
Plasmodium isolates were collected from patients attending malaria clinics in Timika (Papua, Indonesia), a region endemic for multidrug-resistant strains of P. vivax and P. falciparum. Patients with symptomatic malaria presenting to an outpatient facility were recruited into the study if singly infected with P. falciparum or P. vivax, with a parasitaemia of between […], and the majority (>60%) of parasites at ring stage of development. […]
as §1
as §2, with “A candle jar was used to mature the parasites at 37° C. for 35-56 hours.” left out, “microscopy. […]” for “microscopy.”

[4] abbreviates: Plasmodium falciparum, NF54, upper bound as printed, 72 hours, 3H-hypoxanthine incorporation, read-out: NF54 IC50.
The mark [5] stands for this setting: measured values printed under the bound, 72 hours, 3H-hypoxanthine incorporation, read-out: NF54 IC50 (nM), measured values.

Structures are written as SMILES. Where a name gives a salt, the structure may show the parent alone. Read-outs that look alike come from different tables or passages of the source. Bounds are passed on as bounds.

What is called IC50 is the concentration that inhibits the measured activity by half.

Regarding `N=C(N)NC(=O)c1cc(C#Cc2ccc(C(F)(F)F)c(C(N)=O)c2)cc(C(F)(F)F)c1` [Compound 8], the IC50 in experiment [1] (setting [4]) is below 100 nM.

As for `N=C(N)NC(=O)c1cc(C#Cc2ccc(Cl)c(C(=O)Nc3ccccn3)c2)cc(C(F)(F)F)c1` [Compound 6, 5-((3-(carbamimidoylcarbamoyl)-5-(trifluoromethyl)phenyl)ethynyl)-2-chloro-N-(pyridin-2-yl)benzamide hydrochloride], in experiment [1] (setting [4]), the IC50 is below 10 nM.

As for `Cc1cccc(NC(=O)c2cc(C#Cc3cc(C(=O)NC(=N)N)cc(C(F)(F)F)c3)ccc2C)n1` [Compound 2, 5-((3-((diaminomethylene)carbamoyl)-5-(trifluoromethyl)phenyl)ethynyl)-2-methyl-N-(6-methylpyridin-2-yl)benzamide hydrochloride], in experiment [1] (Plasmodium falciparum, NF54, read-out: NF54 IC50 (nM)), the IC50 is below 25 nM.

With `Cc1ccc(C#Cc2cc(C(=O)NC(=N)N)cc(C(F)(F)F)c2)cc1C(=O)Nc1ccccn1` [Compound 4, 5-((3-(carbamimidoylcarbamoyl)-5-trifluoromethyl)phenyl)ethynyl)-2-methyl-N-(pyridin-2-yl)benzamide hydrochloride], in experiment [1] (setting [4]), the IC50 was below 10 nM.

As to `N=C(N)NC(=O)c1cc(C#Cc2ccc(C(F)(F)F)c(C(=O)Nc3ccc(O)cn3)c2)cc(C(F)(F)F)c1` [Compound 5, 5-((3-(carbamimidoylcarbamoyl)-5-(trifluoromethyl)phenyl)ethynyl)-N-(5-hydroxypyridin-2-yl)-2-(trifluoromethyl)benzamide hydrochloride], the IC50 in experiment [1] (setting [4]) is below 10 nM.

Take `OC(c1cc(C(F)(F)F)nc2c(C(F)(F)F)cccc12)C1CCCCN1` (stereo not drawn) [mefloquine]: the “Drug susceptibility difference between species” value in experiment [2] is listed as “did not differ significantly”.

In the case of `N=C(N)NC(=O)c1cc(C#Cc2ccc(C(F)(F)F)c(C(=O)Nc3ccccn3)c2)cc(C(F)(F)F)c1` [Compound 1a, 5-((3-(carbamimidoylcarbamoyl)-5-(trifluoromethyl)phenyl)ethynyl)-N-(pyridin-2-yl)-2-(trifluoromethyl)benzamide], the IC50 in experiment [1] (setting [4]) is below 10 nM; in experiment [1] (setting [5]), 7 nM.

For `N=C(N)NC(=O)c1cc(C#Cc2ccc(C(F)(F)F)c(C(=O)Nc3ccccn3)c2)cc(C(F)(F)F)c1` [Compound 1c, 5-((3-(carbamimidoylcarbamoyl)-5-(trifluoromethyl)phenyl)ethynyl)-N-(pyridin-2-yl)-2-(trifluoromethyl)benzamide malonic acid], the IC50 in experiment [1] (setting [5]) was 17 nM; in experiment [1] (upper bound, 72 hours, 3H-hypoxanthine incorporation, read-out: NF54 IC50) it was below 20 nM.

With `Clc1ccc2c(N3CCN(CCCN4CCN(c5ccnc6cc(Cl)ccc56)CC4)CC3)ccnc2c1` [piperaquine], the “Drug susceptibility difference between species” value in experiment [2] was “did not differ significantly”.

As for `Cl.N=C(N)NC(=O)c1cc(C#Cc2ccc(C(F)(F)F)c(C(=O)Nc3ccccn3)c2)cc(C(F)(F)F)c1` [Compound 1b, 5-((3-(carbamimidoylcarbamoyl)-5-(trifluoromethyl)phenyl)ethynyl)-N-(pyridin-2-yl)-2-(trifluoromethyl)benzamide hydrochloride], the IC50 in experiment [3] was 18.9 nM; in experiment [2] (Plasmodium vivax, ex vivo, isolates from Timika (Papua, Indonesia), 35-56 hours), 12 nM; in experiment [1] (upper bound, 72 hours, 3H-hypoxanthine incorporation, hydrochloride, read-out: NF54 IC50) it was below 15 nM. In addition, the “Drug susceptibility difference between species” value in experiment [2] is given as “did not differ significantly”.

Take `C[C@H]1[C@H](OC(=O)CCC(=O)O)O[C@@H]2O[C@@]3(C)CC[C@H]4[C@H](C)CC[C@@H]1[C@@]24OO3` [artesunate]: the “Drug susceptibility difference between species” value in experiment [2] is given as “did not differ significantly”.

For `Cc1cccc(NC(=O)c2cc(C#Cc3cc(F)cc(C(=O)NC(=N)N)c3)ccc2C(F)(F)F)n1` [Compound 3, 5-((3-(carbamimidoylcarbamoyl)-5-fluorophenyl)ethynyl)-N-(6-methylpyridin-2-yl)-2-(trifluoromethyl)benzamide hydrochloride], the IC50 in experiment [1] (setting [4]) is below 25 nM.

With `N=C(N)NC(=O)c1cc(F)cc(C#Cc2ccc(C(F)(F)F)c(C(=O)Nc3ccccn3)c2)c1` [Compound 7, 5-((3-(carbamimidoylcarbamoyl)-5-fluorophenyl)ethynyl)-N-(pyridin-2-yl)-2-(trifluoromethyl)benzamide hydrochloride], in experiment [1] (setting [4]), the IC50 was below 20 nM.

For the origin of these results see patent US11078160B2, “Ethynyl compounds, their preparation and their therapeutic use for the treatment of malaria” (SANOFI, priority 2017, dated 2021).
